Experimental data published in publication PMC8113725, “Structure–activity relationship of ipglycermide binding to phosphoglycerate mutases” (The Journal of Biological Chemistry, 2021).
Like-named read-outs stand apart in the source and are kept apart here. Bridge positions count the residues as written; N and C are the ends. Square brackets hold non-standard residues; d marks the D form. Peptide text beside a SMILES is read from it. Phe(4-F) = N[C@@H](Cc1ccc(F)cc1)C(=O)O; Abu = CC[C@H](N)C(=O)O

Columns and labels:
E. coli iPGM [1] = target: T1, E. coli iPGM (Escherichia coli, UniProt P37689); assay: biochemical; details: […]
D. immitis iPGM = D. immitis iPGM (Dirofilaria immitis, UniProt F4ZE01); assay: biochemical
B. malayi iPGM = target: T2, B. malayi iPGM (Brugia malayi, UniProt Q4VWF8); assay: biochemical; format: binding; details: for Kd: Supplementary Table 5, SPR, B.m. iPGM, unit inferred
T2 sequence (Q4VWF8 1-515): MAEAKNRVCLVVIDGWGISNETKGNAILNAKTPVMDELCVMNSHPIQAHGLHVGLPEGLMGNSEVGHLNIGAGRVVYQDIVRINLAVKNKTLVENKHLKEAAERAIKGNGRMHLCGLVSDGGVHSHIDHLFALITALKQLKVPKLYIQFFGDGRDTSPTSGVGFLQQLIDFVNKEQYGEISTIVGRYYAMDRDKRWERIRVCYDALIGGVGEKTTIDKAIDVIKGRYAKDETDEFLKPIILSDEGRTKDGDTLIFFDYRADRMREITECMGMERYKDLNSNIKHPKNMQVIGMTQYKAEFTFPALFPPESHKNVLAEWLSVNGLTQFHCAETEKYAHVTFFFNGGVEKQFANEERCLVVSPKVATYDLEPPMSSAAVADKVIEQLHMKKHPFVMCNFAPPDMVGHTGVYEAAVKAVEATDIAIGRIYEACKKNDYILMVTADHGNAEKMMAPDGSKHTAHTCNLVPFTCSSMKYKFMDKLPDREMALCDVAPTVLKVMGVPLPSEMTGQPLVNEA

C. elegans iPGM = C. elegans iPGM (Caenorhabditis elegans, UniProt G5EFZ1); assay: SPR binding kinetics and saturation binding, biotinylated iPGM on Biotin CAPture chip (Biacore S200)
E. coli iPGM [2] = target: T1, E. coli iPGM; assay: as above; details: for koff / kon: LoQ = limit of quantitation; for Kd: unit inferred
[3] = SPR, 25 °C, global fit to 1:1 binding model
[4] = Supplementary Table 5, SPR, E.c. iPGM

## CC(C)C[C@H](NC(=O)[C@H](Cc1ccc(O)cc1)NC(=O)[C@@H]1CSCC(=O)N[C@H](Cc2ccc(O)cc2)C(=O)N[C@@H](CC(=O)O)C(=O)N[C@@H](Cc2ccc(F)cc2)C(=O)N2CCC[C@H]2C(=O)NCC(=O)N[C@@H](CC(=O)O)C(=O)N[C@@H](Cc2ccc(O)cc2)C(=O)N1)C(=O)N[C@@H](Cc1ccc(O)cc1)C(=O)NCC(=O)N[C@H](C(=O)N[C@@H](CS)C(N)=O)[C@@H](C)O [Ce-2 Y3(4F)F] ({CH2CO}-[dY]D[Phe(4-F)]PGDYCYLYGTC-NH2; thioether N-8)
E. coli iPGM [1]
  IC50: 4180 nM
D. immitis iPGM; Di iPGM Ave IC50 (M)
  IC50: 1.52e-09 M

## COc1ccc(C[C@@H]2NC(=O)CSC[C@@H](C(=O)N[C@@H](Cc3ccc(O)cc3)C(=O)N[C@@H](CC(C)C)C(=O)N[C@@H](Cc3ccc(O)cc3)C(N)=O)NC(=O)[C@H](Cc3ccc(O)cc3)NC(=O)[C@H](CC(=O)O)NC(=O)CNC(=O)[C@@H]3CCCN3C(=O)[C@H](Cc3ccc(O)cc3)NC(=O)[C@H](CC(=O)O)NC2=O)cc1 [Ce-2d Y1(4OMe)F]
E. coli iPGM [1]
  IC50: 20000 nM
D. immitis iPGM; Di iPGM Ave IC50 (M)
  IC50: 1.87e-08 M

## CC(C)C[C@H](NC(=O)[C@H](Cc1ccc(O)cc1)NC(=O)[C@@H]1CSCC(=O)N[C@H](Cc2ccc(O)cc2)C(=O)N[C@@H](CC(=O)O)C(=O)N[C@@H](Cc2ccc(O)cc2)C(=O)N2CCC[C@H]2C(=O)NCC(=O)N[C@@H](CC(=O)O)C(=O)N[C@@H](Cc2ccc(O)cc2)C(=O)N1)C(=O)N[C@@H](Cc1ccc(O)cc1)C(=O)NCC(=O)N[C@@H](CO)C(=O)N[C@@H](CS)C(N)=O [Ce-2 Thr13Ser]
B. malayi iPGM
  koff: 7.84e-05 s⁻¹
  kon: 1.47e+06 M⁻¹ s⁻¹
  Kd: 0.0853 nM
B. malayi iPGM; [3]
  koff: 7.8e-05 s⁻¹
  kon: 1.6e+06 M⁻¹ s⁻¹
C. elegans iPGM
  Kd: 0.0287 nM
  koff: 7.83e-05 s⁻¹
  kon: 2.86e+06 M⁻¹ s⁻¹
C. elegans iPGM; [3]
  koff: 0.00017 s⁻¹
  kon: 2.9e+06 M⁻¹ s⁻¹
D. immitis iPGM; IC50 (M)
  IC50: 2.56e-09 M
E. coli iPGM [2]; SPR, 25 °C, global fit to 1:1 binding model, read-out: koff
  koff: 0.00033 s⁻¹
E. coli iPGM [2]; SPR, 25 °C, global fit to 1:1 binding model, read-out: kon
  kon: 240000 M⁻¹ s⁻¹
E. coli iPGM [2]; [4]
  koff: 0.000333 s⁻¹
  kon: 236000 M⁻¹ s⁻¹
  Kd: 1.31 nM

## CC(C)C[C@H](NC(=O)[C@H](Cc1ccc(O)cc1)NC(=O)[C@@H]1CSCC(=O)N[C@H](Cc2ccc(O)cc2)C(=O)N[C@@H](CC(=O)O)C(=O)N[C@@H](Cc2ccc(O)cc2)C(=O)N2CCC[C@H]2C(=O)NCC(=O)N[C@@H](CC(=O)O)C(=O)N[C@@H](Cc2ccc(O)cc2)C(=O)N1)C(=O)N[C@@H](Cc1ccc(O)cc1)C(=O)NCCCC(=O)N[C@@H](CS)C(N)=O [Ce-2 [12-13]GABA]
E. coli iPGM [1]
  IC50: 2980 nM
D. immitis iPGM; Di iPGM Ave IC50 (M)
  IC50: 2.85e-09 M

## CC[C@H](C)[C@@H]1NC(=O)[C@H](Cc2ccc(O)cc2)NC(=O)[C@H](CC(=O)O)NC(=O)[C@@H](Cc2ccc(O)cc2)NC(=O)CSC[C@@H](C(=O)N[C@@H](Cc2ccc(O)cc2)C(=O)N[C@@H](CC(C)C)C(=O)N[C@@H](Cc2ccc(O)cc2)C(N)=O)NC(=O)[C@H](Cc2ccc(O)cc2)NC(=O)[C@H](CC(=O)O)NC(=O)CNC1=O [Ce-2d P4I]
E. coli iPGM [1]
  IC50: 21900 nM
D. immitis iPGM; Di iPGM Ave IC50 (M)
  IC50: 2.21e-07 M

## CC[C@@H]1NC(=O)[C@@H](Cc2ccc(O)cc2)NC(=O)CSC[C@@H](C(=O)N[C@@H](Cc2ccc(O)cc2)C(=O)N[C@@H](CC(C)C)C(=O)N[C@@H](Cc2ccc(O)cc2)C(=O)NCC(=O)N[C@H](C(=O)N[C@@H](CS)C(N)=O)[C@@H](C)O)NC(=O)[C@H](Cc2ccc(O)cc2)NC(=O)[C@H](CC(=O)O)NC(=O)CNC(=O)[C@@H]2CCCN2C(=O)[C@H](Cc2ccc(O)cc2)NC1=O [Ce-2 D2Abu] ({CH2CO}-[dY][Abu]YPGDYCYLYGTC-NH2; thioether N-8)
B. malayi iPGM
  koff: 0.000125 s⁻¹
  kon: 561000 M⁻¹ s⁻¹
  Kd: 0.223 nM
C. elegans iPGM
  Kd: 0.0157 nM
  koff: 4.55e-05 s⁻¹
  kon: 3.04e+06 M⁻¹ s⁻¹
D. immitis iPGM; Di iPGM Ave IC50 (M)
  IC50: 1.52e-09 M
D. immitis iPGM; IC50 (M)
  IC50: 1.57e-09 M
E. coli iPGM [2]; [4]
  koff: 0.00202 s⁻¹
  kon: 270000 M⁻¹ s⁻¹
  Kd: 25.4 nM

## CC(C)C[C@H](NC(=O)[C@H](Cc1ccc(O)cc1)NC(=O)[C@@H]1CSCC(=O)N[C@H](Cc2ccc(O)cc2)C(=O)N[C@@H](CCC(N)=O)C(=O)N[C@@H](Cc2ccc(O)cc2)C(=O)N2CCC[C@H]2C(=O)NCC(=O)N[C@@H](CC(=O)O)C(=O)N[C@@H](Cc2ccc(O)cc2)C(=O)N1)C(=O)N[C@@H](Cc1ccc(O)cc1)C(N)=O [Ce-2d D2Q]
E. coli iPGM [1]
  IC50: 8040 nM
D. immitis iPGM; Di iPGM Ave IC50 (M)
  IC50: 3.31e-07 M

## COc1ccc(C[C@H](NC(=O)[C@H](CC(C)C)NC(=O)[C@H](Cc2ccc(O)cc2)NC(=O)[C@@H]2CSCC(=O)N[C@H](Cc3ccc(O)cc3)C(=O)N[C@@H](CC(=O)O)C(=O)N[C@@H](Cc3ccc(O)cc3)C(=O)N3CCC[C@H]3C(=O)NCC(=O)N[C@@H](CC(=O)O)C(=O)N[C@@H](Cc3ccc(O)cc3)C(=O)N2)C(N)=O)cc1 [Ce-2d Y11(4OMe)F]
E. coli iPGM [1]
  IC50: 12800 nM
D. immitis iPGM; Di iPGM Ave IC50 (M)
  IC50: 6.05e-08 M

## CC(C)C[C@H](NC(=O)[C@H](Cc1ccc(O)cc1)NC(=O)[C@@H]1CSCC(=O)N[C@H](Cc2ccc(O)cc2)C(=O)N[C@@H](CC(=O)O)C(=O)N[C@@H](Cc2ccc(O)cc2)C(=O)N2CCC[C@H]2C(=O)NCC(=O)N[C@@H](CC(=O)O)C(=O)N[C@@H](Cc2ccc(O)cc2)C(=O)N1)C(=O)N[C@@H](Cc1ccc(O)cc1)C(=O)NCC(=O)NCC(=O)N[C@@H](Cc1c[nH]cn1)C(N)=O [Ce-2 T13G, C14H]
E. coli iPGM [1]
  IC50: 12700 nM
D. immitis iPGM; Di iPGM Ave IC50 (M)
  IC50: 1.12e-07 M

## CC(C)C[C@H](NC(=O)[C@H](Cc1ccc(O)cc1)NC(=O)[C@@H]1CSCC(=O)N[C@H](Cc2ccc(O)cc2)C(=O)N[C@@H](CC(=O)O)C(=O)N[C@@H](Cc2ccc(O)cc2)C(=O)N2CCC[C@H]2C(=O)NCC(=O)N[C@@H](CC(=O)O)C(=O)N[C@@H](Cc2ccc(F)cc2)C(=O)N1)C(=O)N[C@@H](Cc1ccc(O)cc1)C(=O)NCC(=O)N[C@H](C(=O)N[C@@H](CS)C(N)=O)[C@@H](C)O [Ce-2 Y7(4F)F]
E. coli iPGM [1]
  IC50: 12800 nM
D. immitis iPGM; Di iPGM Ave IC50 (M)
  IC50: 1.67e-09 M

## CC(C)C[C@H](NC(=O)[C@H](Cc1ccccc1)NC(=O)[C@@H]1CSCC(=O)N[C@H](Cc2ccc(O)cc2)C(=O)N[C@@H](CC(=O)O)C(=O)N[C@@H](Cc2ccc(O)cc2)C(=O)N2CCC[C@H]2C(=O)NCC(=O)N[C@@H](CC(=O)O)C(=O)N[C@@H](Cc2ccc(O)cc2)C(=O)N1)C(=O)N[C@@H](Cc1ccc(O)cc1)C(=O)NCC(=O)N[C@H](C(=O)N[C@@H](CS)C(N)=O)[C@@H](C)O [Ce-2 Y9F] ({CH2CO}-[dY]DYPGDYCFLYGTC-NH2; thioether N-8)
E. coli iPGM [1]
  IC50: 815 nM
D. immitis iPGM; Di iPGM Ave IC50 (M)
  IC50: 2.69e-09 M
D. immitis iPGM; IC50 (M)
  IC50: 2.79e-09 M

## CC(C)C[C@H](NC(=O)[C@H](Cc1ccc(O)cc1)NC(=O)[C@@H]1CSCC(=O)N[C@H](Cc2ccc(O)cc2)C(=O)N[C@@H](CC(=O)O)C(=O)N[C@@H](Cc2ccc(O)cc2)C(=O)N2CCC[C@H]2C(=O)NCC(=O)N[C@@H](CC(=O)O)C(=O)N[C@@H](Cc2ccc(O)cc2)C(=O)N1)C(=O)N[C@@H](Cc1ccc(O)cc1)C(=O)NCC(=O)NCC(=O)NO [Ce-2 T13G, C14NHOH]
B. malayi iPGM
  koff: 0.0284 s⁻¹
  kon: 110000 M⁻¹ s⁻¹
  Kd: 245 nM
C. elegans iPGM
  Kd: 16.3 nM
  koff: 0.00251 s⁻¹
  kon: 197000 M⁻¹ s⁻¹
D. immitis iPGM; Di iPGM Ave IC50 (M)
  IC50: 1.84e-07 M
E. coli iPGM [2]; [4]
  koff: > LOQ
  kon: > LOQ

## CC(C)C[C@H](NC(=O)[C@H](Cc1ccc(O)cc1)NC(=O)[C@@H]1CSCC(=O)N[C@H](Cc2ccc(O)cc2)C(=O)N[C@@H](CC(=O)O)C(=O)N[C@@H](Cc2ccc(O)cc2)C(=O)N2CCC[C@H]2C(=O)NCC(=O)N[C@@H](CC(=O)O)C(=O)N[C@@H](Cc2ccc(O)cc2)C(=O)N1)C(=O)N[C@@H](Cc1ccc(O)cc1)C(=O)NCC(=O)N[C@@H](Cc1c[nH]cn1)C(=O)N[C@@H](CS)C(N)=O [Ce-2 T13H]
B. malayi iPGM
  koff: 0.000587 s⁻¹
  kon: 1.06e+06 M⁻¹ s⁻¹
  Kd: 0.555 nM
C. elegans iPGM
  Kd: 0.0264 nM
  koff: 1.98e-05 s⁻¹
  kon: 752000 M⁻¹ s⁻¹
D. immitis iPGM; IC50 (M)
  IC50: 3.77e-09 M
E. coli iPGM [2]; [4]
  koff: 0.0144 s⁻¹
  kon: 103000 M⁻¹ s⁻¹
  Kd: 62.7 nM

## CC(C)C[C@H](NC(=O)[C@H](Cc1ccc(O)cc1)NC(=O)[C@@H]1CSCC(=O)N[C@H](Cc2ccc(O)cc2)C(=O)N[C@@H](CC(=O)O)C(=O)N[C@@H](Cc2ccc(O)cc2)C(=O)N2CCC[C@H]2C(=O)N[C@@H](CC(C)C)C(=O)N[C@@H](CC(=O)O)C(=O)N[C@@H](Cc2ccc(O)cc2)C(=O)N1)C(=O)N[C@@H](Cc1ccc(O)cc1)C(N)=O [Ce-2d G5L]
E. coli iPGM [1]
  IC50: 13200 nM
